One may read the IC50 as the midpoint of a concentration-inhibition curve.

Calls of active or inactive are those of the source. The rule behind the calls is not given here.

In one experiment the target is Acetylcholinesterase (Homo sapiens, UniProt P22303). Put plainly: Inhibition of AChe (unknown origin) incubated for 0.25 hrs by DTNB-reagent based Ellman's method. Background: Ellman's reagent forms a yellow product with free thiols.
The test system of experiment [1] is RAW264.7. Put plainly: Anti-inflammatory activity in mouse RAW264.7 cells assessed as inhibition of LPS-induced NO production incubated for 36 hrs by Griess assay. The format is functional, cell-based. The following applies: for IC50: RAW264.7, 36 h. On the technique in general: The Griess reaction detects nitrite, a stable product of nitric oxide.
Experiment [2] relates to RAW264.7. Put plainly: Anti-inflammatory activity in mouse RAW264.7 cells assessed as alleviation of LPS-induced IL-6 mRNA expression level at 12.5 to 50 uM by qRT-PCR analysis. It is filed as functional, cell-based. The following applies: dose 12.5-50 µM. For orientation: Real-time PCR tracks product formation cycle by cycle.
Experiment [3] deals with RAW264.7. The experiment is described as follows: Anti-inflammatory activity in mouse RAW264.7 cells assessed as alleviation of LPS-induced IL-1 beta mRNA expression level at 12.5 to 50 uM by qRT-PCR analysis. The following applies: dose 12.5-50 µM. The format is functional, cell-based.
For experiment [4], the system named is RAW264.7. The experiment is described as follows: Anti-inflammatory activity in mouse RAW264.7 cells assessed as alleviation of LPS-induced TNF-alpha mRNA expression level at 12.5 to 50 uM by qRT-PCR analysis. The following applies: dose 12.5-50 µM. It is filed as functional, cell-based.
Experiment [5] relates to RAW264.7. Put plainly: Anti-inflammatory activity in mouse RAW264.7 cells assessed as alleviation of LPS-induced cox-2 mRNA expression level at 12.5 to 50 uM by qRT-PCR analysis. The format is functional, cell-based. The following applies: dose 12.5-50 µM.
Experiment [6] has as its system RAW264.7. Put plainly: Anti-inflammatory activity in mouse RAW264.7 cells assessed as downregulation of the LPS-induced iNOS expression at 12.5 to 50 uM by qRT-PCR analysis. The following applies: dose 12.5-50 µM. The format is functional, cell-based.
Experiment [7] has as its system RAW264.7. Put plainly: Anti-inflammatory activity in mouse RAW264.7 cells assessed as downregulation of the LPS-induced IL-10 mRNA expression at 12.5 to 50 uM by qRT-PCR analysis. The format is functional, cell-based. The following applies: dose 12.5-50 µM.
Experiment [8] concerns RAW264.7. The experiment is described as follows: Anti-inflammatory activity in mouse RAW264.7 cells assessed as alleviation of LPS-induced IL-6 mRNA expression level at 10 to 40 uM by qRT-PCR analysis. The format is functional, cell-based. The following applies: dose 10-40 µM.
Experiment [9] deals with RAW264.7. Put plainly: Anti-inflammatory activity in mouse RAW264.7 cells assessed as alleviation of LPS-induced IL-1 beta mRNA expression level at 10 to 40 uM by qRT-PCR analysis. It is filed as functional, cell-based. The following applies: dose 10-40 µM.
The test system of experiment [10] is RAW264.7. Put plainly: Anti-inflammatory activity in mouse RAW264.7 cells assessed as alleviation of LPS-induced TNF-alpha mRNA expression level at 10 to 40 uM by qRT-PCR analysis. It is filed as functional, cell-based. The following applies: dose 10-40 µM.
In experiment [11] the test system is RAW264.7. Put plainly: Anti-inflammatory activity in mouse RAW264.7 cells assessed as alleviation of LPS-induced COX-2 mRNA expression level at 10 to 40 uM by qRT-PCR analysis. The format is functional, cell-based. The following applies: dose 10-40 µM.

Chain of Acetylcholinesterase (P22303 whole entry): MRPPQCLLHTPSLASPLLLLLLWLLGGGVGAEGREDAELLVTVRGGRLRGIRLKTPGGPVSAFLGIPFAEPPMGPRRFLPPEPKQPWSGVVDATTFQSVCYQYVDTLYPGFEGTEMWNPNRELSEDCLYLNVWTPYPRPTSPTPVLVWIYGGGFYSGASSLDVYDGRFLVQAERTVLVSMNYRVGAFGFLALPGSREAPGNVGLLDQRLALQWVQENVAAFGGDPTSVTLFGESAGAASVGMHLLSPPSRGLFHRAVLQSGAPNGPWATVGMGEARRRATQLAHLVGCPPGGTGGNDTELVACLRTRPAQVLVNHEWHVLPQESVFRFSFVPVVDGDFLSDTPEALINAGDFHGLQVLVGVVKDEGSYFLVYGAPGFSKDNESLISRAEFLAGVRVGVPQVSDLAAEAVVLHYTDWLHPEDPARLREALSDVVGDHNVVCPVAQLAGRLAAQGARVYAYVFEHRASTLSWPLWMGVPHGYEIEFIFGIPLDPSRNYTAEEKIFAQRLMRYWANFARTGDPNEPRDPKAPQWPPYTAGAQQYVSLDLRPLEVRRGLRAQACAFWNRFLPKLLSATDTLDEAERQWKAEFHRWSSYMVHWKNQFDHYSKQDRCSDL

Molecule `CCOC(=O)c1c(C)cc(OC(=O)c2c(C)cc(O)cc2O)cc1O` showed an IC50 at Acetylcholinesterase of 15 µM. Besides, the result in the experiment on RAW264.7 [1] was inactive.
The matching figures for `OCc1cc(O)cc(O)c1`: 28 µM and “inactive”.
In the case of `COC(=O)c1c(C)cc(O)cc1O` [METHYL ORSELLINATE], 24 µM corresponded to half-maximal inhibition against Acetylcholinesterase (IC50). Moreover, in the experiment with RAW264.7 [1], the outcome was inactive.
The like results for `Cc1cc(O)cc(OC(=O)c2c(C)cc(O)c(C=O)c2O)c1` were, in that order, 15 µM and “inactive”.
Take `CCOC(=O)c1c(C)cc(O)c(Cc2c(C)c(C(=O)OC)c(O)c(C)c2O)c1O`: the IC50 in the experiment with RAW264.7 [1] was 28 µM. The outcome in the experiment with RAW264.7 [2], in the experiment on RAW264.7 [3], in the experiment on RAW264.7 [4], with RAW264.7 [5] and with RAW264.7 [6] was Active.
`CC(=O)C1=C(O)C=C2Oc3c(C(C)=O)c(O)c(C)c(O)c3[C@@]2(C)C1=O` [(+)-USNIC ACID] came in with an IC50 at Acetylcholinesterase of 28 µM. Besides, the result in the experiment with RAW264.7 [1] was inactive.
At Acetylcholinesterase, `Cc1cc(O)c(C)c(O)c1` registered a 50% inhibitory concentration (IC50) of 25 µM. Besides, in the experiment with RAW264.7 [1], the outcome was inactive.
Regarding `CCOC(=O)c1c(O)cc(O)c(Cc2c(O)cc(C)c(C(=O)OC)c2O)c1C`, the IC50 against Acetylcholinesterase amounted to 20 µM; in the experiment on RAW264.7 [1] it was 35 µM. Also, in the experiment with RAW264.7 [7], the result was Active.
The molecule `COCc1c(O)c(Oc2c(C=O)c(O)cc(C)c2C(=O)OC)c2c(c1O)C(=O)O[C@H]2O` came in with a half-maximal inhibitory concentration (IC50) against Acetylcholinesterase of 7.1 µM. Moreover, in the experiment with RAW264.7 [1], the outcome was inactive.
As to `COC(=O)c1c(C)cc(O)c(Cc2c(C)c(C(=O)OC)c(O)c(C)c2O)c1O`, the IC50 with RAW264.7 [1] was found to be 20 µM. In addition, the result with RAW264.7 [8], in the experiment on RAW264.7 [9], with RAW264.7 [10] and in the experiment with RAW264.7 [11] was Active.
Turning to `Cc1cc(O)cc(O)c1C(=O)O` [ORSELLINIC ACID], the 50% inhibitory concentration (IC50) against Acetylcholinesterase is 26 µM. Further, the outcome in the experiment on RAW264.7 [1] was inactive.
Take `COC(=O)c1c(C)cc(O)c(Cc2c(O)cc(C)cc2O)c1O`: the IC50 at Acetylcholinesterase was 15 µM. In the experiment on RAW264.7 [1], the outcome was inactive.
The like results for `CCOC(=O)c1c(O)cc(O)c(Cc2c(O)cc(C)c(C(=O)OCC)c2O)c1C` were, in that order, 19 µM and “inactive”.

Source of the values: ChEMBL document CHEMBL6153146, “Secondary Metabolites of the Lichen Lethariella cladonioides and Their Neuroprotective Potential” (J Nat Prod, 2025).
